In US12344587B2, “Synthetic retinoids for use in RAR activation” (UNIVERSITY OF DURHAM, priority 2019, dated 2025):
Converted amounts (≈) assume the structure as drawn.

Legend:
[1] = tested on: ERK1/2; test: ERK1/2 phosphorylation assay, AlphaLISA SureFire Ultra (non-genomic activity); assay type: cell-based; parameters: Non-genomic activity (ERK½ Phosphorylation Assay) Efficacy (Emax): unit not given here; conditions: SH-SY5Y cells; for EC50: Homo sapiens, 0.5 h, read-out: Non-genomic activity (ERK½ Phosphorylation Assay) Potency (EC50); for EC50 / Non-genomic activity (ERK½ Phosphorylation Assay) Efficacy (Emax): serum-free, 30 minutes stimulation; for Erk 1/2 phosphorylation potency/efficacy compared to retinoic acid: versus retinoic acid
Procedure: The non-genomic activity of synthetic retinoids was evaluated by measuring their ability to induce phosphorylation of ERK1/2 using the AlphaLISA® SureFire® Ultra ERK1/2 kit.
In this assay, SH-SY5Y cells (100,000 cells/well) were plated in 96-well plates and serum-starved in DMEM for 24 hours. Retinoids were tested at concentrations from 10−5 M to 10−11 M and at a final concentration of 0.1% DMSO in the medium. The assay was carried out on the SH-SY5Y cells in serum-free DMEM, cells were stimulated by retinoid for 30 minutes at 37° C.
At the end of the assay, the medium was removed, and cells were lysed in 50 μl of freshly prepared 1× lysis buffer (supplied in the kit). The 96-well plate was agitated on an orbital shaker (SO1, Stuart Scientific) at approximately 350 rpm for 10 minutes at room temperature.
In the meantime, the activation buffer was diluted 25-fold in the reaction buffers. Under green light in a dark room, the acceptor beads were diluted 50-fold in the freshly prepared reaction mix while the donor beads were diluted 50-fold in dilution buffer to obtain two final reaction mixtures.
10 μl of cell lysate was then transferred per well into 384-well white Proxiplates plates (PerkinElmer) and 5 μl of each prepared acceptor and donor reaction mixture was added under green light in a dark room. Plates were wrapped with aluminium foil and incubated at room temperature for at least 3 hours. Readings were taken using an Envision system (PerkinElmer Life Sciences) using the AlphaScreen® settings.

[2] = Turbidimetric aqueous solubility; assay type: physicochemical; conditions: aqueous buffer, kinetic from dmso stock, 0.01 M phosphate buffered saline pH 7.4, 1% DMSO, 37° C.
Procedure: Test compound (10 mM in DMSO) is serially diluted to give solutions of 0.1, 0.3, 1 and 3 mM in DMSO. Each test compound concentration is then further diluted 1 in 100 in buffer (0.01 M phosphate buffered saline pH 7.4) so that the final DMSO concentration was 1% and the final test compound concentrations were 1, 3, 10, 30 and 100 μM. The experiment was performed at 37° C. and each concentration sample was incubated in 7 replicate wells. The plates were incubated for 2 hr at 37° C. before the absorbance was measured at 620 nm. The solubility of the sample was estimated from the concentration of test compound that produced an increase in absorbance above vehicle control (i.e., 1% DMSO in buffer).

[3] = tested on: rat mixed primary neuronal/glial cultures; test: Regulation of Alzheimer's disease related genes (qPCR); assay type: cell-based; conditions: 10 nM retinoid 24 hours after 1 μg/ml lipopolysaccharide 6 hours
Procedure: To examine the influence retinoids may have on the expression of genes involved in Alzheimer's disease, the expression of a group of Alzheimer's-related genes in rat mixed primary neuronal/glial cultures was assessed following retinoid treatment.
Approximately 300,000 rat neuronal/glial cells were treated first with 1 μg/ml lipopolysaccharide (Sigma-Aldrich) for 6 hours to induce inflammation. Following the induction of inflammation, cells were treated with 10 nM retinoids for 24 hours. […] Following treatment, RNA was extracted from the treated cells for qPCR analysis.
Total RNA was extracted using a Qiagen RNeasy mini kit (CAT # 74104, Qiagen) according to the manufacturer's protocol. Briefly, cell and brain tissue samples were homogenized in 350 μl and 1200 μl of RLT buffer mixed with β-ME (1 ml buffer: 10 μl β-ME ratio) respectively. Then, samples were centrifuged for 3 min at 13,000 rpm. The supernatant was first mixed with 70% ethanol at a 1:1 volume ratio (CAT # E7023, Sigma-Aldrich) before transferring it to a spin column placed in a collection tube. The samples were centrifuged for 1 min at 10,000 rpm to bind RNA to the membrane of the spin column.
For the on-column DNase digestion, the samples in the columns were washed with 350 μl RW1 buffer and centrifuged at 10,000 rpm for 1 min. Then, 80 μl of the DNase mixture (10 μl DNase enzyme with 70 μl RDD buffer; CAT # 79254, Qiagen) was added above each sample. Samples were incubated at room temperature for 15 min before adding 350 μl RW1 buffer. Samples were centrifuged at 10,000 rpm for 1 min.
Afterwards, 500 μl of RPE buffer (mixed with 100% ethanol at 1:4 ratio) was added above the samples. Samples were centrifuged for 1 min at 10,000 rpm (the step was repeated 2 times). The spin columns were centrifuged again at 13,000 rpm for 1 min to dry the membranes. The spin columns were removed from the collection tubes and placed inside another 1.5 ml RNase free collection tubes. The RNA was eluted by adding 30 μl of RNase free water directly to the spin column membrane. The samples were incubated 5 min at room temperature before spinning them for 1 min at 10,000 rpm.
RNA concentration was measured using a NanoDrop™ 2000c spectrophotometer (Thermo Fisher Scientific). The instrument was calibrated using the RNase free water used to elute the RNA as a blank and 2 μl was used of each RNA sample. RNA samples were stored in a −70° C. freezer to minimize RNA degradation.
qPCR reactions were performed using PerfeCTa SYBR Green SuperMix (CAT # 733-1246, VWR). 10 μl of reaction mix was added to each well of a 384-well plate (CAT # 04729749001, Roche) in triplicate. Each reaction contained 2 μl of 4 times diluted cDNA template, 5 μl 2×SYBR green mix and 250 nM primers.
Primers were designed using Primer-BLAST with melting temperatures of about 60° C. Before using them in qPCR, the primers were checked for specificity by PCR and the PCR products were sent for sequencing.
Standard curves (made using 5-fold dilutions of the stock cDNA) and blank controls were run for all sets of primers tested in qPCR. The plates were then sealed and centrifuged briefly to ensure all the reagents were at the base of the wells. The plates were run on a Roche LightCycler 480 that was programmed to hold the plate at 95° C. for 5 min. The qPCR then ran for 45 cycles of 95° C. for 15 seconds (s), 60° C. for 15 s and 72° C. for 15 s. Afterwards, the melting curve was obtained by running the plate at 95° C. for 5 s followed by 58° C. for 1 min.
Results were analysed using the delta delta CT method within the LightCycler 480 1.5 software. The expression of genes of interest was normalized to the appropriate reference gene according to each experiment.

SMILES | EC50 [1] [nM] | Non-genomic activity (ERK½ Phosphorylation Assay) Efficacy (Emax) [1] | Erk 1/2 phosphorylation potency/efficacy compared to retinoic acid [1] | solubility at 2 h [2] [µM] | Expression of inflammation genes (Ccl5, TNFα and Nos2) [3] | Expression of neuroprotection genes (Abca1, Abcg1, Igf1 and Igf2) [3] | Expression of non-amyloidogenic pathway genes (Nep, Ide and Adam10) [3]
CC1(C)CCC(C)(C)c2nc(C#Cc3ccc(C(=O)O)cc3)cnc21 [DC645, 4-[2-(5,5,8,8-Tetramethyl-5,6,7,8-tetrahydroquinoxalin-2-yl)ethynyl]benzoic acid] | 8.54 | 91.57 | higher potency and efficacy | > 100 | downregulated | upregulated | upregulated
CC1(C)CCC(C)(C)c2cc(C#Cc3ccc(C(=O)O)cc3F)ccc21 [DC526, 3-Fluoro-4-[2-(5,5,8,8-tetramethyl-5,6,7,8-tetrahydronaphthalen-2-yl)ethynyl]benzoic acid] | 26.4 | 50.22 | higher potency and efficacy | 20 (≈ 7.01 µg/mL) | downregulated | upregulated | upregulated
CC1(C)CCC(C)(C)c2cc(C#Cc3ccc(C(=O)O)nc3)ccc21 [DC528, 5-[2-(5,5,8,8-tetramethyl-5,6,7,8-tetrahydronaphthalen-2-yl)ethynyl]pyridine-2-carboxylic acid] | 14.2 | 69.15 | higher potency and efficacy | 20 (≈ 6.67 µg/mL) | downregulated | upregulated | upregulated
